Experiment: Human plasma protein binding (equilibrium dialysis)
Type: in vitro ADME
Conditions: dialysis 18 hours
Method: The automated equilibrium dialysis assay in human plasma uses the RED (Rapid Equilibrium Dialysis) Device and sample handling. The assay generally runs over two to three days including delivery of results. After dialysis for 18 hours, plasma and buffer samples are prepared for analysis by liquid chromatography and mass spectrometry. Samples are generally tested in singlicates and quantified by LC/MSMS by using a 7-point calibration curve in plasma. The compounds are pooled together in plasma pools up to 10 compounds. Three reference compounds are used in each run, Propranolol, Metoprolol and Warfarin. Warfarin is used as a control in each pool and Propranolol and Metoprolol are placed randomly in each run. An in-house Excel macro is used for preparation of files for the robot and the mass spectrometer and is also used for the calculations of fraction unbound (fu %) in plasma.

| SMILES | Human plasma protein binding (% free) |
| --- | --- |
| C[C@@H]1Cc2c([nH]c3ccc(F)cc23)[C@@H](c2c(F)ccc(NCCNCCCF)c2F)N1CC(F)(F)CO [Example 89, 3-((1R,3R)-1-(2,6-difluoro-3-((2-((3-fluoropropyl)amino)ethyl)amino)phenyl)-6-fluoro-3-methyl-1,3,4,9-tetrahydro-2H-pyrido[3,4-b]indol-2-yl)-2,2-difluoropropan-1-ol] | <3.4 % free |
| C[C@@H]1Cc2c([nH]c3ccc(F)cc23)[C@@H](c2c(F)cnc(OCCNCCCF)c2F)N1CC(F)(F)CO [Example 65, 3-((1R,3R)-1-(3,5-difluoro-2-(2-((3-fluoropropyl)amino)ethoxy)pyridin-4-yl)-6-fluoro-3-methyl-1,3,4,9-tetrahydro-2H-pyrido[3,4-b]indol-2-yl)-2,2-difluoropropan-1-ol] | 1.9 % free |
| COc1ccc(OCCNCCCF)cc1[C@@H]1c2[nH]c3ccc(F)cc3c2C[C@@H](C)N1CC(F)(F)CO [Example 46, 2,2-difluoro-3-((1R,3R)-6-fluoro-1-(5-(2-((3-fluoropropyl)amino)ethoxy)-2-methoxyphenyl)-3-methyl-1,3,4,9-tetrahydro-2H-pyrido[3,4-b]indol-2-yl)propan-1-ol] | 2.4 % free |
| C[C@@H]1Cc2c([nH]c3ccccc23)[C@@H](c2cncc(OCCNCCCF)c2)N1CC(F)(F)F [Example 101, 3-fluoro-N-(2-((5-((1R,3R)-3-methyl-2-(2,2,2-trifluoroethyl)-2,3,4,9-tetrahydro-1H-pyrido[3,4-b]indol-1-yl)pyridin-3-yl)oxy)ethyl)propan-1-amine] | 8.4 % free |
| C[C@@H]1Cc2c([nH]c3cc(F)ccc23)[C@@H](c2c(F)ccc(OCCNCCCF)c2F)N1CC(F)(F)CO [Example 61, 3-((1R,3R)-1-(2,6-difluoro-3-(2-((3-fluoropropyl)amino)ethoxy)phenyl)-7-fluoro-3-methyl-1,3,4,9-tetrahydro-2H-pyrido[3,4-b]indol-2-yl)-2,2-difluoropropan-1-ol] | 2.0 % free |
| Cc1c([C@@H]2c3[nH]c4ccccc4c3C[C@@H](C)N2C[C@H](C)C(=O)O)ccnc1OCCNCCCF [Example 132, (S)-3-((1R,3R)-1-(2-2-((3-(fluoropropyl)amino)ethoxy)-3-methylpyridin-4-yl)-3-methyl-1,3,4,9-tetrahydro-2H-pyrido[3,4-b]indol-2-yl)-2-methylpropanoic acid] | 34 % free |
| CCc1ccc(OCCNCCCF)cc1[C@@H]1c2[nH]c3ccccc3c2C[C@@H](C)N1CC(F)(F)F [Example 21, N-(2-(4-ethyl-3-((1R,3R)-3-methyl-2-(2,2,2-trifluoroethyl)-2,3,4,9-tetrahydro-1H-pyrido[3,4-b]indol-1-yl)phenoxy)ethyl)-3-fluoropropan-1-amine] | 0.10 % free |
| Cc1c(OCCN(C)CCCF)ncc(F)c1[C@@H]1c2[nH]c3ccccc3c2C[C@@H](C)N1C(C)CC(=O)O (single isomer, unassigned) [Example 158] | 21 % free |
| COc1ccc(OCCNCCCF)c(F)c1[C@@H]1c2[nH]c3ccc(F)cc3c2C[C@@H](C)N1CC(F)(F)CO [Example 86, 2,2-difluoro-3-((1R,3R)-6-fluoro-1-(2-fluoro-3-(2-((3-fluoropropyl)amino)ethoxy)-6-methoxyphenyl)-3-methyl-1,3,4,9-tetrahydro-2H-pyrido[3,4-b]indol-2-yl)propan-1-ol] | 2.6 % free |
| Cc1ccc(OCCNCCCF)c(C)c1[C@@H]1c2[nH]c3ccccc3c2C[C@@H](C)N1CC(F)(F)F [Example 79, N-(2-(2,4-dimethyl-3-((1R,3R)-3-methyl-2-(2,2,2-trifluoroethyl)-2,3,4,9-tetrahydro-1H-pyrido[3,4-b]indol-1-yl)phenoxy)ethyl)-3-fluoropropan-1-amine] | <0.4 % free |
| Cc1c(OCCNCCCF)ncnc1[C@@H]1c2[nH]c3ccccc3c2C[C@@H](C)N1CC(F)(F)CO [Example 115, 2,2-difluoro-3-((1S,3R)-1-(6-(2-((3-fluoropropyl)amino)ethoxy)-5-methylpyrimidin-4-yl)-3-methyl-1,3,4,9-tetrahydro-2H-pyrido[3,4-b]indol-2-yl)propan-1-ol] | 11 % free |
| C[C@@H]1Cc2c([nH]c3ccccc23)[C@@H](c2c(F)ccc(OCCNCCCF)c2F)N1CC(F)F [Example 51, N-(2-(3-((1R,3R)-2-(2,2-difluoroethyl)-3-methyl-2,3,4,9-tetrahydro-1H-pyrido[3,4-b]indol-1-yl)-2,4-difluorophenoxy)ethyl)-3-fluoropropan-1-amine] | 2.3 % free |
| COc1ccc(OCCNCCCF)c(F)c1[C@@H]1c2[nH]c3ccccc3c2C[C@@H](C)N1CC(F)F [Example 82, N-(2-(3-((1R,3R)-2-(2,2-difluoroethyl)-3-methyl-2,3,4,9-tetrahydro-1H-pyrido[3,4-b]indol-1-yl)-2-fluoro-4-methoxyphenoxy)ethyl)-3-fluoropropan-1-amine] | 1.9 % free |
| C[C@@H]1Cc2c([nH]c3ccccc23)[C@@H](c2c(Cl)ccc(OCCNCCCF)c2F)N1CC(F)(F)F [Example 78, N-(2-(4-chloro-2-fluoro-3-((1R,3R)-3-methyl-2-(2,2,2-trifluoroethyl)-2,3,4,9-tetrahydro-1H-pyrido[3,4-b]indol-1-yl)phenoxy)ethyl)-3-fluoropropan-1-amine] | 0.21 % free |
| Cc1c([C@@H]2c3[nH]c4ccccc4c3C[C@@H](C)N2C[C@@H](C)C(=O)O)ccnc1OCCN(C)CCCF [Example 161, (R)-3-((1R,3R)-1-(2-(2-((3-fluoropropyl)(methyl)amino)ethoxy)-3-methylpyridin-4-yl)-3-methyl-1,3,4,9-tetrahydro-2H-pyrido[3,4-b]indol-2-yl)-2-methylpropanoic Acid] | 6.3 % free |
| C[C@@H]1Cc2c([nH]c3ccccc23)[C@@H](c2c(F)ccc(OCCNCCCF)c2F)N1CC1(F)COC1 [Example 13, N-(2-(2,4-difluoro-3-((1R,3R)-2-((3-fluorooxetan-3-yl)methyl)-3-methyl-2,3,4,9-tetrahydro-1H-pyrido[3,4-b]indol-1-yl)phenoxy)ethyl)-3-fluoropropan-1-amine] | 3.5 % free |
| C[C@@H]1Cc2c([nH]c3ccccc23)[C@@H](c2cccc(OCCNCCCF)n2)N1CC(F)(F)F [Example 34, 3-fluoro-N-(2-((6-((1S,3R)-3-methyl-2-(2,2,2-trifluoroethyl)-2,3,4,9-tetrahydro-1H-pyrido[3,4-b]indol-1-yl)pyridin-2-yl)oxy)ethyl)propan-1-amine] | 2.2 % free |
| C[C@@H]1Cc2c([nH]c3ccccc23)[C@@H](c2c(F)cnc(OCCNCCCF)c2Cl)N1CC(F)(F)CO [Example 111, 3-((1R,3R)-1-(3-chloro-5-fluoro-2-(2-((3-fluoropropyl)amino)ethoxy)pyridin-4-yl)-3-methyl-1,3,4,9-tetrahydro-2H-pyrido[3,4-b]indol-2-yl)-2,2-difluoropropan-1-ol] | 1.4 % free |
| C[C@@H]1Cc2c([nH]c3ccccc23)[C@@H](c2ccnc(OCCNCCCF)c2Cl)N1CC(F)(F)CO [Example 104, 3-((1R,3R)-1-(3-chloro-2-(2-((3-fluoropropyl)amino)ethoxy)pyridin-4-yl)-3-methyl-1,3,4,9-tetrahydro-2H-pyrido[3,4-b]indol-2-yl)-2,2-difluoropropan-1-ol] | 2.8 % free |
| COc1nnc(OCCNCCCF)cc1[C@@H]1c2[nH]c3ccccc3c2C[C@@H](C)N1CC(F)(F)F [Example 112, 3-fluoro-N-(2-((6-methoxy-5-((1R,3R)-3-methyl-2-(2,2,2-trifluoroethyl)-2,3,4,9-tetrahydro-1H-pyrido[3,4-b]indol-1-yl)pyridazin-3-yl)oxy)ethyl)propan-1-amine] | 1.5 % free |
| C[C@@H]1Cc2c([nH]c3ccccc23)[C@@H](c2cc(OCCNCCCF)cc(F)c2F)N1CC(F)(F)F [Example 30, N-(2-(3,4-difluoro-5-((1R,3R)-3-methyl-2-(2,2,2-trifluoroethyl)-2,3,4,9-tetrahydro-1H-pyrido[3,4-b]indol-1-yl)phenoxy)ethyl)-3-fluoropropan-1-amine] | 0.72 % free |
| C[C@@H]1Cc2c([nH]c3ccccc23)[C@@H](c2nccc(NCCNCCCF)c2F)N1CC(F)(F)F [Example 94, N1-(3-fluoro-2-((1S,3R)-3-methyl-2-(2,2,2-trifluoroethyl)-2,3,4,9-tetrahydro-1H-pyrido[3,4-b]indol-1-yl)pyridin-4-yl)-N2-(3-fluoropropyl)ethane-1,2-diamine] | 7 % free |
| C[C@@H]1Cc2c([nH]c3ccccc23)[C@@H](c2cccc(OCCNCCCF)c2C(F)F)N1CC(F)(F)CO [Example 68, 3-((1R,3R)-1-(2-(difluoromethyl)-3-(2-((3-fluoropropyl)amino)ethoxy)phenyl)-3-methyl-1,3,4,9-tetrahydro-2H-pyrido[3,4-b]indol-2-yl)-2,2-difluoropropan-1-ol] | 1.2 % free |
| C[C@@H]1Cc2c([nH]c3ccccc23)[C@@H](c2cc(OCCNCCCF)ccc2Cl)N1CC(F)(F)F [Example 22, N-(2-(4-chloro-3-((1R,3R)-3-methyl-2-(2,2,2-trifluoroethyl)-2,3,4,9-tetrahydro-1H-pyrido[3,4-b]indol-1-yl)phenoxy)ethyl)-3-fluoropropan-1-amine] | 0.61 % free |
| Cc1c(OCCNCCCF)cncc1[C@@H]1c2[nH]c3ccccc3c2C[C@@H](C)N1CC(F)(F)F [Example 38, 3-fluoro-N-(2-((4-methyl-5-((1R,3R)-3-methyl-2-(2,2,2-trifluoroethyl)-2,3,4,9-tetrahydro-1H-pyrido[3,4-b]indol-1-yl)pyridin-3-yl)oxy)ethyl)propan-1-amine] | 0.91 % free |
| COc1ccc(OCCNCCCF)c(C)c1[C@@H]1c2[nH]c3ccccc3c2C[C@@H](C)N1CC(F)(F)F [Example 26, 3-fluoro-N-(2-(4-methoxy-2-methyl-3-((1R,3R)-3-methyl-2-(2,2,2-trifluoroethyl)-2,3,4,9-tetrahydro-1H-pyrido[3,4-b]indol-1-yl)phenoxy)ethyl)propan-1-amine] | 0.22 % free |

— US10590132B2, “Selective estrogen receptor down-regulators” (AstraZeneca AB, priority 2017, dated 2020)
